Patent US10310377B2, “Material for forming film for lithography, composition for forming film for lithography, film for lithography, pattern forming method and purification method” (Mitsubishi Gas Chemical Company, Inc., priority 2014, dated 2019)

Experiments:
[1] = Solubility in PGME, PGMEA, CPN and CHN at 23° C.
Procedure: Herein, the solubility in PGME and/or PGMEA, and/or CPN, and/or CHN is defined as “Mass of resin/(Mass of resin+Mass of solvent)×100 (% by mass)”.
The amount of each compound dissolved in 1-methoxy-2-propanol (PGME), propylene glycol monomethyl ether acetate (PGMEA), cyclopentanone (CPN), and cyclohexanone (CHN) was measured at 23° C., and the results were evaluated according to the following criteria.
Evaluation A: 10% by mass or more
Evaluation B: less than 10% by mass

[2] = Thermogravimetric measurement (TG), 15% thermal weight loss temperature; type: physicochemical
[3] = cyclopentanone and cyclohexanone
[4] = 1-methoxy-2-propanol and propylene glycol monomethyl ether acetate

Compound | solubility in CPN and CHN [1, 3] | solubility in CPN and CHN (Evaluation) [1, 3] | 15% thermal weight loss temperature [2] | solubility in PGME and PGMEA [1, 4] | solubility in PGME and PGMEA (Evaluation) [1, 4]
c1ccc2c(c1)c1ccccc1c1c3ccccc3c3ccccc3c21 [DBC, dibenzo[g,p]chrysene] | ≥ 10 % by mass | A (10% by mass or more) | ≥ 400 °C |  | 
tetraallyloxydibenzochrysene [TAODBC] |  |  |  | ≥ 10 % by mass | A (10% by mass or more)
